According to patent US4980362A, “4-substituted-2-alkoxytetrahydrofuran derivatives” (J. Uriach & CIA. S.A., priority 1990, dated 1990):

Experiments:
PAF-induced mortality = assay: Test 3: PAF-induced mortality in mice (p.o.); assay type: in vivo, mouse (Swiss); settings: 1 hour before C18-PAF 100 mcg/kg plus propanolol 1 mg/kg i.v., inhibition of mortality, observed 2 hours after PAF; for ED50: Mus musculus, po, 2 h, read-out: ID50 (the source's name)
Procedure: Finally, certain compounds of the present invention show an improved oral activity with regard to other chemically related PAF-antagonists reported in the literature, such as CV-6209, (disclosed in EP No. 157609) as shown by test 3:
Test 3 - PAF-induced mortality in mice (p.o.)
The experiment is carried out according to the method of Young et al. (Prostaglandins, 1985, 30, 545-551). Groups of 10 Swiss mice weighing 22-26 g are used. 100 mcg/kg of C18 -PAF plus 1 mg/kg of propanolol are intravenously administered in a lateral tail vein 1 hour after the oral administration of test compounds (0.1 mL/10 g). Every animal is observed 2 hours after the PAF injection. Percent inhibition of mortality due to treatments in comparison with control group are recorded. Results are given as ID50 values (mg/kg) in table 3.

[1] = system: hypotension induced by PAF; assay: Test 2: Inhibition of the hypotensive effect induced by PAF in normotense rats; assay type: in vivo, rat (male Sprage Dawley); settings: anesthetized male rats, compound 3 min before PAF 0.5 mcg/Kg i.v., text calls it IC50; for ED50: Rattus norvegicus, iv, read-out: CI50 (the source's name); for CI50: i.v.
Procedure: Test 2 - Inhibition of the hypotensive effect induced by PAF in normotense rats.
Male Sprage Dawley rats, of 180-220 g of weight, anesthetized with sodium pentobarbital (50 mg/Kg, i.p. 1 mL/100 g) have been used. In order to measure the average arterial pressure, a polyethylene catheter is introduced into the carotid artery. The arterial pressure is recorded with the help of a transducer connected with a R611 Beckman polygraph. The tested compounds are administered through the femoral vein 3 min before the injection of PAF (0.5 mcg/Kg, i.v.).

[2] = system: platelet aggregation induced by PAF; assay: Test 1: Inhibition of platelet aggregation induced by PAF; assay type: cell-based, rabbit (male New Zealand albino); settings: rabbit platelet rich plasma, PAF (C18) 16 nM final, Born nephelometric technique
Procedure: Test 1: Inhibition of platelet aggregation induced by PAF.
The blood is obtained by cardiac puncture of male New Zealand albino rabbits (between 2 and 2.5 Kg of weight) and coagulation is prevented by adding 1 part of 3.16% sodium citrate dihydrate in 9 parts of blood. The platelet rich plasma (PRP) is prepared by blood centrifugation at 250×g for 10 min. at 4° C. and it is diluted with platelet poor plasma (PPP) by additional centrifugation at 3000×g for 10 min. The amount of platelets is adjusted to […]. The platelet aggregation induced by PAF (C18; prepared in our laboratory) (16 nM, final) is determined by the Born nephelometric technique (J. Physiol., 1962, 162, 67) using a aggregometer Chrono-log 500. The activities of the inhibitors are expressed as IC50, that is to say the concentration of the drug needed to inhibit the platelet aggregation by 50%.

[3] = Oryctolagus cuniculus, Platelet

Structure (SMILES) | ED50 (PAF-induced mortality) | ED50 [1] | IC50 [2, 3] | CI50 [1] | ID50 (PAF-induced mortality; 120 min) | IC50 [2]
CCCCCCCCCCCCCCCCCCOC1CC(COC(=O)N(Cc2cccc[n+]2C)C(C)=O)CO1 (racemic) [Compound 3, (±)-cis,trans-1-methyl-2-[N-acetyl-N-[[[(2-octadecyloxytetrahydrofuran-4-yl)methoxy]carbonyl]amino]methyl]pyridinium iodide] | > 100 mg/kg | 0.08 mg/kg | 45 nM | – | – | –
CCCCCCCCCCCCCCCCCCOC1CC(COC(=O)N(Cc2cccc[n+]2CC)C(C)=O)CO1 (racemic) [Compound 4, (±)-cis,trans-1-ethyl-2-[N-acetyl-N-[[[(2-octadecyloxytetrahydrofuran-4-yl)methoxy]carbonyl]amino]methyl]pyridinium iodide] | 14 mg/kg | – | 16 nM | 0.053 mg/kg | – | –
CCCCCCCCCCCCCCCCCCOC1CC(COC(=O)N(Cc2cccc[n+]2CC)C(C)=O)CO1 (racemic) [Compound 5, (±)-cis,trans-1-ethyl-2-[N-acetyl-N-[[[(2-octadecyloxytetrahydrofuran-4-yl)methoxy[carbonyl[amino]methyl]pyridinium chloride] | – | – | – | 0.024 mg/kg | 19 mg/kg | 12 nM
CCCCCCCCCCCCCCCCOC1CC(COC(=O)N(Cc2cccc[n+]2CC)C(C)=O)CO1 (racemic) [Compound 8, (±)-cis,trans-1-ethyl-2-[N-acetyl-N-[[[(2-hexadecyloxytetrahydrofuran-4-yl)methoxy]carbonyl]amino]methyl]pyridinium iodide] | 80 mg/kg | 0.01 mg/kg | 12 nM | – | – | –
CCOC1CC(COC(=O)N(Cc2cccc[n+]2CC)C(C)=O)CO1 (racemic) [Compound 11, (±)-cis,trans-1-ethyl-2-[N-acetyl-N-[[[(2-ethoxytetrahydrofuran-4-yl)methoxy]carbonyl]amino]methyl]pyridinium iodide] | – | 2.3 mg/kg | 2900 nM | – | – | –
CC[n+]1ccccc1CN(C(C)=O)C(=O)OCC1COC(OCCC(C)C)C1 (racemic) [Compound 14, (±)-cis,trans-1-ethyl-2-[N-acetyl-N-[[[(2-(3-methylbutoxy)tetrahydrofuran-4-yl)methoxy]carbonyl]amino]methyl]pyridinium iodide] | – | 0.21 mg/kg | 700 nM | – | – | –
CC[n+]1ccccc1CN(C(C)=O)C(=O)OCC1COC(OCCCc2ccccc2)C1 (racemic) [Compound 17, (±)-cis,trans-1-ethyl-2-[N-acetyl-N-[[[(2-(3-phenylpropoxy)tetrahydrofuran-4-yl)methoxy]carbonyl]amino]methyl]pyridinium iodide] | – | 0.12 mg/kg | 190 nM | – | – | –
CCCCCCCCCCCCCCCCCCNC(=O)OCC(COC(=O)N(Cc1cccc[n+]1CC)C(C)=O)OC (stereo not shown) [CV-6209, reference compound] | 70 mg/kg | – | – | – | – | –
